Legend:
[1] = test system: Ramos, NALM-60, CEM, HL-60, JURKAT, RAJI cells; test: Cytotoxicity (CC50), average over six leukemia/lymphoma cell lines; type: cell-based, human; conditions: for CC50: Homo sapiens, average over six neoplastic cell lines
Procedure: (§1) In brief, the compounds were incubated for 24 h with the neoplasms, using DMEM and RPMI media. Three independent experiments were carried out.

[2] = Cytotoxicity (CC50), non-malignant MCF-10A breast cells; type: cell-based; conditions: human, MCF-10A cells (non-malignant breast cells); 24 h incubation; read-out: Non-Malignant Cells CC50, MCF10A
Procedure: as §1

[3] = Cytotoxicity (CC50), non-malignant Hs27 foreskin cells; type: cell-based; conditions: human, 24 h incubation
Procedure: as §1

JURKAT cells = test: Cytotoxicity (CC50), Jurkat cells; type: cell-based, human; conditions: for CC50: Homo sapiens, Jurkat, 24 h incubation; for SI JURKAT: average CC50 of non-malignant cells / CC50 JURKAT
Procedure: as §1

MDA-MB-231 cells = test: Cytotoxicity assay, MDA-MB-231 breast cancer cells; type: cell-based, human; conditions: Homo sapiens, MDA-MB-231, 48 h, read-out: percentage inhibition of MDA-MB-231 cells
Excerpt: (§2) Evaluation of the cytotoxic properties of the compounds presented in Table 1, Table 2, Table 3 and Table 4 was undertaken using the procedure outlined in [7]. In brief, the HCT 116 cells were obtained from the ATCC and cultured in McCoy’s 5A medium. The CRL 1790 cells were obtained from the ATCC and cultured in Minimum Essential Medium. The MCF-7 and MDA-MBA-231 cells were obtained from the Saskatchewan Cancer Agency and cultured in DMEM. In each assay the culture medium was supplemented with 10% fetal bovine serum and 1% penicillin–streptomycin antibiotics. The time of the bioassays was 48 h, unless indicated otherwise. All determinations were carried out in triplicate on three different occasions.

CEM cells = test: Cytotoxicity (CC50), CEM cells; type: cell-based, human; conditions: for CC50: Homo sapiens, CCRF-CEM, 24 h incubation; for SI CEM: average CC50 of non-malignant cells / CC50 CEM
Procedure: as §1

MCF-7 cells = test: Cytotoxicity assay, MCF-7 breast cancer cells; type: cell-based, human; conditions: for inhibition at 10 µM / inhibition at 100 µM: read-out: percentage inhibition of MCF-7 cells
Excerpt: as §2

Ramos cells [4] = test: Cytotoxicity (CC50), Ramos cells; type: cell-based, human; conditions: for CC50: Homo sapiens, Ramos, 24 h incubation; for SI Ramos: average CC50 of non-malignant cells / CC50 Ramos
Procedure: as §1

NALM-60 cells = test: Cytotoxicity (CC50), NALM-60 cells; type: cell-based, human; conditions: for CC50: Homo sapiens, 24 h incubation; for SI NALM-60: average CC50 of non-malignant cells / CC50 NALM-60
Procedure: as §1

CRL 1790 cells = test: Cytotoxicity assay, non-malignant CRL 1790 colon cells; type: cell-based; conditions: Homo sapiens, 48 h, Table 2, read-out: Non-Malignant CRL 1790 Cells IC50
Excerpt: as §2

[5] = Cytotoxicity (CC50), average over non-malignant cells; type: cell-based; conditions: human, Hs27 and MCF10A cells (non-malignant), average of both
Procedure: as §1

HL-60 cells = test: Cytotoxicity (CC50), HL-60 cells; type: cell-based, human; conditions: for CC50: Homo sapiens, HL-60, 24 h incubation; for SI HL-60: average CC50 of non-malignant cells / CC50 HL-60
Procedure: as §1

HCT 116 cells = test: Cytotoxicity assay, HCT 116 colon cancer cells; type: cell-based, human; conditions: for inhibition at 10 µM / inhibition at 100 µM: read-out: percentage inhibition of HCT 116 cells
Excerpt: as §2

RAJI cells = test: Cytotoxicity (CC50), Raji cells; type: cell-based, human; conditions: for CC50: Homo sapiens, Raji, 24 h incubation; for SI RAJI: average CC50 of non-malignant cells / CC50 RAJI
Procedure: as §1

Ramos cells [6] = test: Mitochondrial membrane potential of Ramos cells (JC-1 dye, flow cytometry); type: cell-based, human; conditions: 5 h, Figure 3
Procedure: The effect of 1l on the mitochondrial membrane potential of Ramos cells was determined using the procedure laid out in [9]. In brief, the cells were treated with 1l for 5 h, stained with the JC-1 dye, and then the results were analyzed by flow cytometry.
The MMP of Ramos cells was determined using the JC-1 dye. In this assay, JC-1 enters the energized mitochondria in healthy cells and forms aggregates to produce red fluorescence at 590 nm. However, cells undergoing apoptotic cell death have a low mitochondrial membrane potential.

SMILES	Avg SI, neoplastic cells [1]	CC50 [1]	CC50 at 24 h [2]	CC50 at 24 h [3]	CC50 (JURKAT cells)	SI JURKAT (JURKAT cells)	inhibition at 10 µM (MDA-MB-231 cells)	inhibition at 100 µM (MDA-MB-231 cells)	CC50 (CEM cells)	SI CEM (CEM cells)	inhibition at 10 µM (MCF-7 cells; Homo sapiens, MCF7, 48 h)	inhibition at 100 µM (MCF-7 cells; Homo sapiens, MCF7, 48 h)	CC50 (Ramos cells [4])	SI Ramos (Ramos cells [4])	CC50 (NALM-60 cells)	SI NALM-60 (NALM-60 cells)	IC50 (CRL 1790 cells)	CC50 at 24 h [5]	CC50 (HL-60 cells)	SI HL-60 (HL-60 cells)	further results
C=CC(=O)NNC(=O)c1ccccc1 [1a, N^2-Acryloylbenzohydrazide]	16.1	2.64 µM	13.7 ± 1.1 µM	12.1 ± 0.91 µM	3.52 ± 0.36 µM	3.65	-12.2 ± 1.5%	52.1 ± 2.04%	0.91 ± 0.48 µM	14.2	5.47 ± 3.52%	51.1 ± 2.87%	0.19 ± 0.01 µM	67.9	2.74 ± 0.59 µM	4.71	> 100 µM	12.9 µM	3.32 ± 0.26 µM	3.89	melting point: 177 to 179 °C; inhibition at 10 µM (HCT 116 cells; Homo sapiens, HCT-116, 48 h): 10.6 ± 1.7%; inhibition at 100 µM (HCT 116 cells; Homo sapiens, HCT-116, 48 h): 94.1 ± 1.44%; IC50 (HCT 116 cells; Homo sapiens, HCT-116, Table 2, 48 h, read-out: Neoplastic Cells IC50, HCT 116): 36.9 ± 2.84 µM; SI (selectivity index) (HCT 116 cells; IC50 CRL 1790 / IC50 HCT 116, Table 2): >2.70; CC50 (RAJI cells): 5.18 ± 0.35 µM; SI RAJI (RAJI cells): 2.49
C=CC(=O)NNC(=O)c1ccc(OC)cc1 [1l, N^2-Acryloyl-4-methoxylbenzohydrazide]	22.7	1.97 µM	18.1 ± 0.84 µM	17.7 ± 0.62 µM	2.17 ± 0.45 µM	8.25	-4.95 ± 3.12%	47.7 ± 3.19%	1.42 ± 0.25 µM	12.6	60.6 ± 3.29%	99.4 ± 2.34%	0.19 ± 0.01 µM	94.2	3.25 ± 0.99 µM	5.51	> 100 µM	17.9 µM	1.86 ± 0.66 µM	9.62	IC50 (MCF-7 cells; Homo sapiens, MCF7, Table 2, 48 h, read-out: Neoplastic Cells IC50, MCF-7): 3.18 ± 0.53 µM; SI (selectivity index) (MCF-7 cells; IC50 CRL 1790 / IC50 MCF-7, Table 2): >31.5; effect on mitochondrial membrane potential of Ramos cells (Ramos cells [6]; CC50 concentration of 1l, vs control): significantly depolarized; effect on mitochondrial membrane potential of Ramos cells (Ramos cells [6]; doubled (2 x CC50) concentration of 1l): approximately twofold increase in the mitochondrial depolarization; inhibition at 10 µM (HCT 116 cells; Homo sapiens, HCT-116, 48 h): 8.62 ± 2.79%; inhibition at 100 µM (HCT 116 cells; Homo sapiens, HCT-116, 48 h): 85.1 ± 3.28%; CC50 (RAJI cells): 2.93 ± 0.43 µM; SI RAJI (RAJI cells): 6.11

From article PMC8226474, “Design, Syntheses, and Bioevaluations of Some Novel N^2-Acryloylbenzohydrazides as Chemostimulants and Cytotoxic Agents” (Medicines, 2021)
